The record followed here is ChEMBL document CHEMBL4118068 (Eur J Med Chem, 2017).

For assay [1], the target named is T1, Muscarinic acetylcholine receptor M1 (Homo sapiens, UniProt P11229).
T1 sequence (P11229 whole entry): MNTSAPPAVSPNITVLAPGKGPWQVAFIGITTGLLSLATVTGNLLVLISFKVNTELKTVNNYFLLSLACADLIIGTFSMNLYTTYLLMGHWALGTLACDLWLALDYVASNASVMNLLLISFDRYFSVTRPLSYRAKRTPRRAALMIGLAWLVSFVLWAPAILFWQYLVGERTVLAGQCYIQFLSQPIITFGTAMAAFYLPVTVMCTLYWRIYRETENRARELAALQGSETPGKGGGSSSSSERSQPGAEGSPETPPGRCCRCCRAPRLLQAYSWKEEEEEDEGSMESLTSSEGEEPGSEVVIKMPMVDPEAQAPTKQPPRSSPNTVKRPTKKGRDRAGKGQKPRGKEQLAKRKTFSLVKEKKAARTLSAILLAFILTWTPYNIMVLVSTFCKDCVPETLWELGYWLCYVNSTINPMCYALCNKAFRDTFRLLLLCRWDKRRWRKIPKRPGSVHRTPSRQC
Briefly: Displacement of [3H]NMS from recombinant human muscarinic M1 receptor expressed in CHOK1 cell membranes after 120 mins by scintillation counting method.

In assay [2] the target is T2, Muscarinic acetylcholine receptor M5 (Homo sapiens, UniProt P08912).
T2 sequence (P08912 whole entry): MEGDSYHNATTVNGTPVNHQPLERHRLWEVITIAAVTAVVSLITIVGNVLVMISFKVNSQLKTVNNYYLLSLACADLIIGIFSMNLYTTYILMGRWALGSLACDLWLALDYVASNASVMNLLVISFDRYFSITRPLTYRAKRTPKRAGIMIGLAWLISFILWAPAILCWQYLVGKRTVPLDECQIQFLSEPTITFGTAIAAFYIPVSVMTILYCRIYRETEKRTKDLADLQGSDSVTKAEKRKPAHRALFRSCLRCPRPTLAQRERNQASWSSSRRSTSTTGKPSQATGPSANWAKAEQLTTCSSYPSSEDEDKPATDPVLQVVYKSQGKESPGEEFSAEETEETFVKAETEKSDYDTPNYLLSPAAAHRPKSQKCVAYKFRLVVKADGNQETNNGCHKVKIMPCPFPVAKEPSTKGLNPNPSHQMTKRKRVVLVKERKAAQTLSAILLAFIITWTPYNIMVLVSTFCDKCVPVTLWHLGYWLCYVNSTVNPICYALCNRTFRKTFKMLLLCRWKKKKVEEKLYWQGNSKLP
Kind of assay: Displacement of [3H]NMS from recombinant human muscarinic M5 receptor expressed in CHOK1 cell membranes after 120 mins by scintillation counting method.

Assay [3] addresses T3, Muscarinic acetylcholine receptor M4 (Homo sapiens, UniProt P08173).
T3 sequence (P08173 whole entry): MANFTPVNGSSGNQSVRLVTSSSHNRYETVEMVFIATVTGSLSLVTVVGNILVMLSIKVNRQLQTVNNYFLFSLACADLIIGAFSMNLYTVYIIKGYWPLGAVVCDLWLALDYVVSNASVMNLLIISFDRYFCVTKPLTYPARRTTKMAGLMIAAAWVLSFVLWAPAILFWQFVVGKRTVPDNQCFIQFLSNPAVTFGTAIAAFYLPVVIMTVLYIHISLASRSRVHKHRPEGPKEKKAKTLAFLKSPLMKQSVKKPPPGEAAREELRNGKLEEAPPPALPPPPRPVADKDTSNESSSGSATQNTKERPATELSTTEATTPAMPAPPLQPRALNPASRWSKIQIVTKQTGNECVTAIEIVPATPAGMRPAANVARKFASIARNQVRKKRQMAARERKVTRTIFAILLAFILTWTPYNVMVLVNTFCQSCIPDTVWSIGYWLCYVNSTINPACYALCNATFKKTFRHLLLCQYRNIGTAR
Kind of assay: Displacement of [3H]NMS from recombinant human muscarinic M4 receptor expressed in CHOK1 cell membranes after 120 mins by scintillation counting method.

Assay [4] deals with T4, Muscarinic acetylcholine receptor M2 (Homo sapiens, UniProt P08172).
T4 sequence (P08172 whole entry): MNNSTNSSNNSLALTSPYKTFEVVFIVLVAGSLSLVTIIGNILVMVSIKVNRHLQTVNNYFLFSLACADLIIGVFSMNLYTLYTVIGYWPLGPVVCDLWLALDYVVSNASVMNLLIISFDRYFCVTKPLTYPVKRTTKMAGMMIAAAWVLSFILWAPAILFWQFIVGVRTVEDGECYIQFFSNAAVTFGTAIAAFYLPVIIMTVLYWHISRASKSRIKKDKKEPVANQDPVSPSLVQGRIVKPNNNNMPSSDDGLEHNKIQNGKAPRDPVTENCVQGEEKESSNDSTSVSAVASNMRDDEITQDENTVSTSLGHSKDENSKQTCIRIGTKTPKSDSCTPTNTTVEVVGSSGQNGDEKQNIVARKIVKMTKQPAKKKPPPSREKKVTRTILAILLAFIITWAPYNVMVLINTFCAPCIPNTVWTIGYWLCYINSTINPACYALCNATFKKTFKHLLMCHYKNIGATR
Kind of assay: Displacement of [3H]NMS from recombinant human muscarinic M2 receptor expressed in CHOK1 cell membranes after 120 mins by scintillation counting method. On the technique in general: Loss of bound radioactivity is the signal in a displacement assay; it reports binding, not function.

Assay [5] deals with Muscarinic acetylcholine receptor M3 (Homo sapiens, UniProt P20309). Briefly: Displacement of [3H]NMS from recombinant human muscarinic M3 receptor expressed in CHOK1 cell membranes after 120 mins by scintillation counting method.
Chain of Muscarinic acetylcholine receptor M3 (P20309 whole entry): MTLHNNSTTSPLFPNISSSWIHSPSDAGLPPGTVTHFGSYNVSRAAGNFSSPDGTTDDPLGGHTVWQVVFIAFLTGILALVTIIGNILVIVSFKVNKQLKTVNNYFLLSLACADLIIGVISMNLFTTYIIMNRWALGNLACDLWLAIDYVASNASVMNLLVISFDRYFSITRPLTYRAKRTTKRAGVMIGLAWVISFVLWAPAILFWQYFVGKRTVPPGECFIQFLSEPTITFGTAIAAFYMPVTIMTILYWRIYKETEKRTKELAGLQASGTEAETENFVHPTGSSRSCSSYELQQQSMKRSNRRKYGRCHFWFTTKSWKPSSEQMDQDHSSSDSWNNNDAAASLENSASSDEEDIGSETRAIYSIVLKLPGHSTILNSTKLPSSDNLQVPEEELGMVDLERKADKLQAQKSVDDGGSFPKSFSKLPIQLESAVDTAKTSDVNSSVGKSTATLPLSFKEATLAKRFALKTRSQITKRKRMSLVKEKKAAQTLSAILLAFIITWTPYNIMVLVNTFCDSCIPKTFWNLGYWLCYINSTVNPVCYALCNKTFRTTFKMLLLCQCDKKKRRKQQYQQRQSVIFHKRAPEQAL

A word on the Ki: it is a dissociation constant, usually derived from enzyme kinetics or from competition with a known ligand. With `c1ccc(C2(c3ccccc3)COC[C@@H](CO[C@@H]3CN4CCC3CC4)O2)cc1`, the Ki was 55 nM in assay [1]; 112 nM in assay [2]; 100 nM in assay [3]; 61.7 nM in assay [4]; 105 nM in assay [5].

`c1ccc(C2(c3ccccc3)COC[C@H](CO[C@@H]3CN4CCC3CC4)O2)cc1`: the Ki in assay [1] is 4.57 nM; in assay [2] it was 19.1 nM; in assay [3], 11.5 nM; in assay [4], 33.1 nM; in assay [5], 20 nM.

As to `c1ccc(C2(c3ccccc3)COC[C@H](CO[C@H]3CN4CCC3CC4)O2)cc1`, the inhibition constant Ki is 8.91 nM in assay [1]; 45.7 nM in assay [2]; 22.9 nM in assay [3]; 57.5 nM in assay [4]; 43.7 nM in assay [5].

`c1ccc(C2(c3ccccc3)COC[C@@H](CO[C@H]3CN4CCC3CC4)O2)cc1`: the Ki in assay [1] was 162 nM; in assay [2], 631 nM; in assay [3] it was 437 nM; in assay [4], 355 nM; in assay [5] it was 617 nM.

For `O=C(O[C@H]1CN2CCC1CC2)N1CCc2ccccc2[C@@H]1c1ccccc1` [SOLIFENACIN], the Ki in assay [1] was 51.3 nM; in assay [2], 43.7 nM; in assay [3], 129 nM; in assay [4], 120 nM; in assay [5], 13.2 nM.
